The text below walks through data of PubChem BioAssay (NCI).

Where “and” joins values, the source holds several entries; their conditions need not be identical. Identical values can stand only once.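 96-well plates; 48 h exposure; 5 concentrations. Endpoints by linear interpolation between flanking doses. Not reached: highest tested concentration assigned. GI50 = concentration required for 50% inhibition of growth. TGI denotes the concentration required for complete inhibition of growth.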

What all share (assay): NCI tumour cell line growth inhibition, 48 h
The test system of experiment [1] is BT-549 breast.
Experiment [2] has as its system DMS 114 small cell lung.
Experiment [3] concerns LXFL 529 NSCLC.
Experiment [4] concerns SNB-78 CNS.
The subject of experiment [5] is MDA-N.
The test system of experiment [6] is HOP-18 NSCLC.
Experiment [7] has as its system KM20L2 colon.
For experiment [8], the system named is XF 498 CNS.
Experiment [9] deals with RXF-631 renal.

As to `COC(=O)C(Cc1ccccc1)NC(=O)NC(=O)NC(=O)CI` (stereo not drawn), in experiment [1], the GI50 was 10 µM and the TGI was determined as 21.8 µM.
On to `COc1ccc(N=c2ssc3c(=S)ssc23)cc1`, for which the TGI in [2] came to 26 µM; in experiment [3], 31.9 µM; in experiment [4], 99.4 µM.
For the compound `CC(=O)NC1=C(OS(=O)(=O)c2ccc(C)cc2)CN(C)C1=O`, the results for the TGI in experiment [1] and in experiment [5] were 12 µM and 24.5 µM, respectively.
Take `COc1cccc(NC(=O)c2sc3nc4c(cc3c2N)CN(Cc2ccccc2)CC4)c1`: in experiment [1], the GI50 was 2.83 µM and the TGI came to 26.2 µM.
Regarding `COC(=O)Cn1c2c(c3c(O)cccc31)C(=O)c1ccccc1-2`, in experiment [1], the GI50 is above 100 µM and the TGI was above 100 µM.
On to `CCN1CCC(CCOC)(CN2c3ccccc3Sc3ccc(Cl)cc32)C1` (stereo not drawn), for which, in [1], the GI50 was 1.88 µM and the TGI came out at 3.68 µM.
Consider `Cn1cnc2nc(Cl)nc(NC(C)(C)C(C)(C)O)c21`, for which the TGI in experiment [2], in experiment [6], in experiment [7], in experiment [4] and in experiment [8] was above 100 µM each time.
Consider `C=CC(=O)N1CCN(c2ccc3cccc(NC(=O)c4cnc(C)cn4)c3n2)CC1`, for which, in experiment [1], the GI50 was 2.31 µM and the TGI was found to be 21.6 µM.
`C=CCc1cc(OC)c2c(c1)C(O)CC(c1ccccc1)O2` (stereo not drawn): the TGI in [2], in experiment [6], in [7], in experiment [3], in experiment [9] and in [4] was above 100 µM each time.
With `O=[N+]([O-])c1cccc(-c2nc3sccn3c2-c2ccnc(NCCCNS(=O)(=O)c3cccc(F)c3)n2)c1`, in experiment [1], the GI50 is 2.18 µM and the TGI worked out at 11.9 µM.
Take `CN(C)CCCN1c2ccccc2CCc2ccc(Cl)cc21`: in experiment [1], the GI50 is 10.4 µM and the TGI came to 22.2 µM.
As to `Cc1ccc(C(=O)Nc2cccc(C(F)(F)F)c2)cc1Nc1nc(-c2cccnc2)nc2c1cnn2C`, in experiment [1], the GI50 was 4.12 µM and 2.86 µM; the TGI was 14.5 µM and 8.91 µM.
As for `Clc1cc(Cl)c(OCC#CI)cc1Cl`, in experiment [1], the GI50 is 7.21 µM and the TGI came to 19.8 µM.
As to `Brc1cccc(C2SCc3nc4ccccc4n32)c1` (stereo not drawn), the TGI in [2] was 35.2 µM; in experiment [3], above 100 µM; in [4] it was 99.2 µM.
As to `CSCC1CC(c2ccc(Cl)cc2)=NO1` (stereo not drawn), the TGI in experiment [2], in experiment [6], in experiment [7], in experiment [3], in experiment [9] and in [4] was above 100 µM throughout.
Consider `Cc1cc2c(C)n(Cc3ccc(Cl)cc3Cl)nc2c(C#N)c1C`, for which the TGI in experiment [2] is above 100 µM; in [6], above 91.6 µM; in experiment [7], above 56.9 µM; in experiment [3], above 100 µM; in experiment [4], above 76.4 µM; in experiment [8] it was 23 µM.
In the case of `c1ccc2c(C3NCCc4[nH]cnc43)cccc2c1` (stereo not drawn), the TGI in experiment [2], in experiment [6], in [7], in [3] and in experiment [4] was above 100 µM throughout.
`C=CCOC1OC(CO[Si](C)(C)C(C)(C)C)C(OCc2ccccc2)C(OCc2ccccc2)C1OCc1ccccc1` (stereo not drawn): the TGI in experiment [1] and in [5] was above 100 µM throughout.
On to `O=C1C(=O)N(c2ccc(Cl)c(Cl)c2)C(=O)C(=O)C1c1nc2ccccc2s1`, for which the TGI in experiment [2], in experiment [6], in experiment [7], in [3] and in experiment [4] was above 100 µM each time.
For `CC(=O)OC1CCn2nnc(CO[Si](C)(C)C(C)(C)C)c21` (stereo not drawn), the TGI in experiment [2], in [6], in experiment [7], in experiment [3] and in experiment [8] was above 100 µM each time.
On to `O=C(c1ccccc1)C(CN1CCOCC1)c1ccccc1` (stereo not drawn), for which, in experiment [1], the GI50 is 1.48 µM and the TGI was 3.77 µM.
On to `O=S(=O)(NCCNC/C=C/c1ccc(Br)cc1)c1cccc2cnccc12`, for which, in [1], the GI50 is 3.09 µM and 7.89 µM; the TGI was 12.7 µM and 21.6 µM.
As for `CCOC(=O)C(=O)Nc1c(CC)cccc1C(C)C`, the TGI in experiment [7], in experiment [3], in experiment [4] and in experiment [8] was above 100 µM each time.
In the case of `CC1=C(CCC(C)N(C)Cc2ccc(OCCCN3CCCC3)cc2)C(C)(C)CCC1` (stereo not drawn), in [1], the GI50 was 12.3 µM and the TGI worked out at 27.1 µM.
`Cc1ccc(C2=NOC3=c4ccccc4=CSC3=C2c2ccc([N+](=O)[O-])cc2)cc1`: in experiment [1], the GI50 is 19.1 µM and the TGI was 46.2 µM.
`N/C(=N\N=C\c1ccc(-c2ccccc2)cc1)N[N+](=O)[O-]`: in experiment [1], the GI50 is 17.1 µM and the TGI is above 100 µM.
With `O=C1OC(CCCl)(c2ccccc2)CC1CN1CCOCC1` (stereo not drawn), the TGI in [2] was 42.9 µM; in [7] it was above 100 µM; in experiment [3], 33.7 µM; in [4], 81.5 µM; in [8], 29.3 µM.
As for `C[C@]12CC[C@H]3[C@@H](CCC4=CC(=O)CC[C@@H]43)[C@@H]1CC[C@@H]2OC(=O)CCc1ccccc1`, in experiment [1], the GI50 was 17.5 µM and the TGI was found to be 33.9 µM.
On to `O=C(O)C1(P(=O)(O)O)CC1`, for which the TGI in [2], in [6], in experiment [7], in experiment [3], in [4] and in experiment [8] was above 100 µM each time.
